From patent US20260152533A1, “COMBINATION INHIBITORS FOR TREATING FIBROSIS” (Memorial Sloan-Kettering Cancer Center, priority 2021, published 2026)

Tested on: mammary fibroblasts (MFBs)
Assay: Growth experiments, MFBs
Format: cell-based, mouse
Conditions: 20% Gln, TGFβ
Description: NIH-3T3 cells were obtained from ATCC (CRL-1658); 293 T cells were obtained from ATCC (CRL-3216). PSCs were isolated from C57BL/6 mice by differential centrifugation as previously described^49 and their mesenchymal origin was validated by analyzing the expression of various mesenchymal and epithelial markers. MFBs were isolated from FVB/N mice by differential centrifugation as previously described^50. DB7 mouse breast cancer cells were obtained from Alexander Borowsky (University of California Davis Comprehensive Cancer Center, Sacramento, CA, USA) through an MTA to Ohio State University (OSU). KPC (Kras^LSL-G12D; Trp53^LSL-R172H; Pdx1-Cre) mouse PDAC cells were a gift from Scott Lowe (Memorial Sloan Kettering Cancer Center. (MSKCC)). […]
A total of 0.2×10^5 cells/well were plated in 24-well culture plates and media was changed and treatments started 5-6 hours later. Cell numbers at the start of treatment (day 0 “d 0”) and 1, 2 and 3 days later were counted using the Multisizer 4e (Beckman) and normalized to the cell number at d 0. In co-culture assays, a fraction of the cell population was analyzed by flow cytometry for GFP expression, and the rest counted with the Multisizer 4e. The number of KPC-GFP cells was determined by multiplying the fraction of GFP+ cells with the total number of cells.

Q: How did the cell proliferation turn out when “TGFβ: transforming growth-factor beta; TGFβ-1 purchased from Peprotech” was run?
A: unable to proliferate
